Like-named read-outs stand apart in the source and are kept apart here.
Columns and labels:
C. violaceum ATCC 31532 [1] = assay: Violacein extraction assay (QS-mediated violacein production); format: cell-based, Chromobacterium violaceum; conditions: for inhibition at 400 µM: ATCC31532, 24 h, read-out: Inhibition-% of violacein production
Procedure: (§1) The initial screening of compound library was conducted using two strains of C. violaceum as model bacterium, and two assays (violacein extraction and resazurin staining) in parallel as recently optimized in [26]. For the screening assays, overnight cultures of C. violaceum were diluted in LB broth supplemented with yeast extract (LBY) (0.1% w/v, Sigma Aldrich, St. Louis, MO, USA). Culture of C. violaceum CV026 was further supplemented with 0.5 µM N-(β-ketocaproyl)-L-Homoserine lactone (3-O-C6-(L)-HSL, Cayman chemicals, Ann Arbor, MI, USA) to induce the violacein production. Bacteria (10^6 CFU/mL) was exposed to compounds (400 µM) in a total volume of 200 µL in 96-microtiter well plates (Nunc, Roskilde, Denmark), and incubated at 27 °C, with shaking at 200 rpm for 24 h. DMSO was added in untreated control wells and bacteria-free wells with only LBY were included controls. Additionally, autoinducer-free wells containing only bacteria were included in C. violaceum CV026 plates. Plates were prepared in duplicates. Quercetin dihydrate (Carl Roth GmbH, Karlsruhe, Germany) at 400 µM was used as positive control in violacein extraction assay, and azithromycin (Cayman chemicals, Ann Arbor, MI, USA) at 10 µM in viability assay. Both control compounds were prepared in DMSO. DMSO concentration was 2.5% throughout the experiments.
(§2) After incubation period of 24 h, plates were centrifuged (Allegra™ X-12R Benchtop centrifuge, Beckman Coulter Inc., Fullerton, CA, USA) at 3000 rpm for 10 min to precipitate the violacein. Supernatants were discarded from the wells by pipetting, and pellets were re-suspended in 200 μL of 96% ethanol by scraping and mixing followed by centrifugation (3000 rpm, 10 min). Thereafter, 100 μL of supernatants were transferred to sterile 96-microtiter well plates, and violacein was quantified by reading the optical density at 595 nm using Varioskan Flash. Inhibition of violacein production was expressed as inhibition percentages of the untreated biofilms (Equation (1)):Inhibition-% = [(untreated control OD595 − sample OD595)/(untreated control OD595 − media control OD595)] × 100%(1) in which untreated control = C. violaceum + DMSO, media control = LBY, and sample = C. violaceum treated with a compound. Later on, violacein extraction assay was also utilized for the determination of half inhibitory concentrations of the compounds.

C. violaceum ATCC 31532 [2] = assay: as above; format: cell-based; conditions: Chromobacterium violaceum
C. violaceum CV026 = assay: Violacein extraction assay (QS-mediated violacein production), mutant strain with exogenous autoinducer; format: cell-based, Chromobacterium violaceum; conditions: for inhibition at 400 µM: Chromobacterium violaceum, CV026, 24 h, read-out: Inhibition-% of violacein production
Procedure: as §1, §2

[3] = system: human lung (HL) epithelial cells; assay: Cytotoxicity testing (CellTiter Glo); format: cell-based; conditions: 200 µM, 24 h exposure, positive control
Procedure: (§3) Human lung (HL) epithelial cells were grown in RPMI 1640 (Biowhittaker, Lonza, Viewers, Bornem, Belgium) supplemented with 10% inactivated fetal bovine serum (FBS), 2 mM L-glutamine and gentamycin 20 µg/mL, and mouse monocyte macrophage RAW 264.7 cells in DMEM medium supplemented with 10% FBS and 20 µg/mL gentamycin. Cells (3 × 10^5 cells/mL) were seeded into 96-microtiter well plates (Cellstar TC, Greiner Bio-One GmbH, Frickenhausen, Germany), 200 µL per well, and incubated at 37 °C in 5% CO2 24 h before exposure to the compounds. After the incubation, culture medium was discarded, the wells were washed with PBS, and the compound dilutions prepared in culture media were added as triplicates to a final volume of 200 µL. Usnic acid (200 µM, Sigma Aldrich, St. Louis, MO, USA) was included as positive control and DMSO (1%) as solvent control. Plates were incubated for additional 24 h. At the end of 24 h, media was removed, wells were washed twice with PBS and 100 µL of PBS was added. CellTiter Glo® reagent (Promega, Madison, WI, USA) was prepared according to manufacturer’s instructions, and 100 µL was added to the wells. The plates were shaken for two minutes and equilibrated at room temperature for 10 min prior to measuring the luminescence using Varioskan LUX multimode plate reader (Thermo Scientific, Vantaa, Finland). Inhibition of cell viability was calculated in relation to the untreated cells.

[4] = system: mouse monocyte macrophage (RAW 264.7) cells; assay: Cytotoxicity testing (CellTiter Glo); format: cell-based; conditions: 200 µM, 24 h exposure, positive control
Procedure: as §3

cancer cell lines = system: cancer cell lines; set-up: method as in ref 56 = [56]; 56. National Center for Biotechnology Information PubChem BioAssay Database Available online: https://pubchem.ncbi.nlm.nih.gov/bioassay/924 (accessed on 28 March 2018); conditions: PubChem Bioassay database ref 56; cited from earlier work
[5] = Chromobacterium violaceum, primary screening, 400 µM, 24 h, C. violaceum ATCC 31532
[6] = ATCC31532, 40 µM, C. violaceum ATCC 31532, mean ± SD of three independent tests, read-out: Inhibition-% of violacein production
[7] = ATCC31532, read-out: Inhibition-% of violacein production

Row | SMILES | inhibition at 400 µM (C. violaceum ATCC 31532 [1]; [5]) | inhibition at 400 µM (C. violaceum CV026) | also measured
1 | Cc1sc(N)nc1-c1c[nH]c2ccccc12 [Compound 2307, 4-indol-3-yl-5-methyl-1,3-thiazole-2-ylamine] | 98.8% | 98.6% | inhibition at 40 µM (C. violaceum ATCC 31532 [2]; [6]): 76.1 ± 3.3%
2 | O=C(CCc1cccc(F)c1)NC(CO)C(O)c1ccccc1 (stereo not drawn) [Compound 2916, 3-(3-fluorophenyl)-N-[2-hydroxy-1-(hydroxymethyl)-2-phenylethyl]propanamide] | 19.7% | 98.3% | 
3 | Cc1cc(C(=O)NC(Cc2ccccc2)C(=O)O)c(C)o1 (stereo not drawn) [Compound 1214, 2-[(2,5-dimethyl(3-furyl))carbonylamino]-3-phenylpropanoic acid] |  | 103% | 
4 | COc1ccc2c(c1)c(CC(=O)NCCCN1CCCCC1)c(C)n2C(=O)c1ccc(Cl)cc1 [Compound 712, 2-{1-[(4-chlorophenyl)carbonyl]-5-methoxy-2-methylindol-3-yl}-N-(3-piperidylpropyl)acetamide] |  | 94.3% | 
5 | C=C(CBr)C1Cc2c(ccc3c2OC2COc4cc(OC)c(OC)cc4C2C3=O)O1 (stereo not drawn) [Compound 341, 2-[1-(bromomethyl)vinyl]-8,9-dimethoxy-1,2-dihydrochromano[3,4-b]furano[2,3-h]chroman-6-one] |  | 95.2% | inhibition at 400 µM (C. violaceum ATCC 31532 [1]; Chromobacterium violaceum): 93.4%; inhibition at 40 µM (C. violaceum ATCC 31532 [2]; [7]): 26.9 ± 7.7%
6 | CC(=O)c1c(O)c(C)c(O)c2c1OC1=CC(=O)C(C(C)=O)C(=O)C12C (stereo not drawn) [Usnic acid, reference compound] |  |  | Inhibition-% of cell viability [3]: 90.0 ± 4.7%; Inhibition-% of cell viability [4]: 98.5 ± 0.6%
7 | COc1ccc(/C=C/C(=O)c2ccc(O)cc2C)cc1 [Compound 2372, (2E)-1-(4-hydroxy-2-methylphenyl)-3-(4-methoxyphenyl)prop-2-en-1-one] | 18.3% | 91.1% | 
8 | O=c1c(O)c(-c2cccnc2)oc2ccc(Cl)cc12 [Compound 575, 6-chloro-3-hydroxy-2-(3-pyridyl)chromen-4-one] | 94.1% | 94.3% | inhibition at 40 µM (C. violaceum ATCC 31532 [2]; [6]): 60.9 ± 4.1%; Anti-cancer activity (cancer cell lines): not active
9 | Nc1ccn(C2OC(CO)C3OP(=O)(O)OC32)c(=O)n1 (stereo not drawn) [Compound 144, 8-(4-amino-2-oxohydropyrimidinyl)-3-hydroxy-6-(hydroxymethyl)-2,4,7-trioxa-3-phosphabicyclo[3.3.0]octan-3-one] | 94.7% | 97.2% | inhibition at 40 µM (C. violaceum ATCC 31532 [2]; [6]): 0%
10 | CCn1cnc2cc(NC(=O)c3cc(OC)c(OC)c(OC)c3)ccc2c1=O [Compound 1508, N-(3-ethyl-4-oxo(3-hydroquinazolin-7-yl))(3,4,5-trimethoxyphenyl)carboxamide] |  | 93.4% | 
11 | COc1ccccc1-c1c(C(F)(F)F)oc2cc(OC(=O)c3ccccc3F)ccc2c1=O [Compound 2909, 3-(2-methoxyphenyl)-4-oxo-2-(trifluoromethyl)chromen-7-yl 2-fluorobenzoate] | 12.1% | 99.9% | 
12 | NC(=O)CC1CCCCN1 (stereo not drawn) [Compound 2584, 2-(2-piperidyl)acetamide] | 20.5% | 106% | 
13 | CCN(CC)C(=O)c1cc(=O)n(CC(=O)Nc2c(C)cc(C)cc2C)c2ccccc12 [Compound 1406, 2-[4-(N,N-diethylcarbamoyl)-2-oxohydroquinolyl]-N-(2,4,6-trimethylphenyl)acetamide] | 40% | 93.3% | 
14 | CC(C)COc1ccc(C(=O)N/C(=C\c2ccccc2)C(=O)NCCNC(=O)/C(=C\c2ccccc2)NC(=O)c2ccc(OCC(C)C)cc2)cc1 [Compound 2, (2E)-N-[2-((2Z)-2-{[4-(2-methylpropoxy)phenyl]carbonylamino}-3-phenylprop-2-enoylamino)ethyl]-2-{[4-(2-methylpropoxy)phenyl]carbonylamino}-3-phenylprop-2-en amide] | 19% |  | 
15 | CCOc1ccc(C2NCCc3c2[nH]c2ccccc32)cc1 (stereo not drawn) [Compound 2666, 4-ethoxy-1-(1,2,3,4-tetrahydrobeta-carbolinyl)benzene] |  | 90.8% | 
16 | CCOc1ccc2oc(=O)cc(CN3CCNCC3)c2c1 [Compound 1852, 6-ethoxy-4-(piperazinylmethyl)chromen-2-one] | 29.7% | 95.2% | 
17 | O=C(CSc1nc2c(=O)[nH]cnc2n1CC1CCCO1)Nc1ccc(F)c(Cl)c1 (stereo not drawn) [Compound 1905, N-(3-chloro-4-fluorophenyl)-2-[6-oxo-9-(oxolan-2-ylmethyl)hydropurin-8-ylthio] acetamide] | 4.7% | 107% | 
18 | COc1cc([C@H]2OC[C@@H]3C(c4ccc(OC5OC(COC6OC(C)C(O)C(O)C6O)C(O)C(O)C5O)c(OC)c4)OC[C@H]23)ccc1O (stereo partly drawn) [Compound 1698, 2-[(6-{4-[(6S,1R,5R)-6-(4-hydroxy-3-methoxyphenyl)-3,7-dioxabicyclo[3.3.0]oct-2-yl]-2-methoxyphenoxy}-3,4,5-trihydroxy(2H-3,4,5,6-tetrahydropyran-2-yl))methoxy]-6-methyl-2H-3,4,5,6-tetrahydropyran-3,4,5-triol] | 91.3% | 96.1% | inhibition at 40 µM (C. violaceum ATCC 31532 [2]; [6]): 2.6 ± 4.6%
19 | O=c1cc(C(Cl)(Cl)Cl)oc2ccccc12 [Compound 2712, 2-(trichloromethyl)chromen-4-one] |  | 106% | 
20 | Cc1ccc2c(C)c(-c3ccc(Cl)cc3)c(=O)oc2c1 [Compound 1352] | 18.8% | 99.6% | 
21 | O=c1c(O)c(-c2ccc(O)c(O)c2)oc2cc(O)cc(O)c12 [Que, quercetin, reference compound] |  | 98.9% | inhibition at 400 µM (C. violaceum ATCC 31532 [1]; Chromobacterium violaceum): 99.7%; IC50 (C. violaceum ATCC 31532 [1]; Chromobacterium violaceum, ATCC31532, read-out: IC50 of violacein production): 3.1 µM; inhibition at 40 µM (C. violaceum ATCC 31532 [2]; [7]): 91.8 ± 2.3%
22 | C1COCCN1.COC(=O)C1=C(C)NC(S)=C(C#N)C1c1cc(OC)c(OC)c(OC)c1 (stereo not drawn) [Compound 1016, methyl 5-cyano-2-methyl-6-sulfanyl-4-(3,4,5-trimethoxyphenyl)-1,4-dihydropyridine-3-carboxylate, morpholine] |  |  | Inhibition-% of violacein production (C. violaceum ATCC 31532 [1]; primary screening, 400 µM, 24 h, C. violaceum ATCC 31532): 34.1%; Inhibition-% of violacein production (C. violaceum CV026; primary screening, 400 µM, 24 h, C. violaceum CV026): 97.5%
23 | O=C(NCCCCCCNC(=O)/C(=C\c1ccccc1)NC(=O)c1ccccc1)/C(=C/c1ccccc1)NC(=O)c1ccccc1 [Compound 3, (2E)-N-{6-[(2Z)-3-phenyl-2-(phenylcarbonylamino)prop-2-enoylamino]hexyl}-3-phenyl-2-(phenylcarbonylamino)prop-2-enamide] | 41% | 41.3% | 

— article PMC5983823, “Screening of Natural Product Derivatives Identifies Two Structurally Related Flavonoids as Potent Quorum Sensing Inhibitors against Gram-Negative Bacteria” (International Journal of Molecular Sciences, 2018)
